Experiments:
Assay type in all cases: cell-based
[1] = system: K. pneumoniae B-88 producing metallo beta-lactamase enzymes; assay: Time kill study against K. pneumoniae B-88; conditions: for Effect on bacterial count (in words): summary of Table 1, alone or in combination
Method: (§1) In general, the antibacterial activity of compositions according to invention was studied by performing time kill studies. In a typical time kill study, the freshly grown cultures were diluted to the required cell density (initial starting inoculum) in cation adjusted Muller Hinton broth medium (BD, USA). The antibacterial agents (either alone or in combination) at the required concentrations were added into the culture-containing medium. The samples were incubated under shaking condition (120 rpm) at 37° C. Enumeration of viable bacterial count was done every 2 hour by diluting in normal saline and plating on to the Tryptic Soya Agar plates (BD, USA). The plates were incubated for 24 hours to arrive at a viable bacterial count. The results are expressed in terms of log10 CFU/ml. In general, the decrease of 1 log10 CFU/ml corresponds to 90% killing of bacteria. Similarly, 2 log10 CFU/ml reductions indicates to 99% killing of bacteria and 3 log10 CFU/ml reductions is equal to 99.9% killing of bacteria.

[2] = system: E. coli 7MP producing Class A and Class C beta-lactamase enzymes; assay: Time kill study against E. coli 7MP; conditions: for Effect on bacterial count (in words): alone or in combination
Method: as §1

[3] = system: A. baumanni 13301 producing Carbapenem hydrolysing beta-lactamase enzymes; assay: Time kill study against A. baumanni 13301; conditions: for Bacterial count (Log10 CFU/ml) 0 hours / Change in Log10 CFU/ml over 0 hour count after 24 hours / Bacterial count (Log10 CFU/ml) 2 hours / Bacterial count (Log10 CFU/ml) 4 hours / Bacterial count (Log10 CFU/ml) 6 hours / Bacterial count (Log10 CFU/ml) 8 hours / Bacterial count (Log10 CFU/ml) 24 hours: 4 mcg/ml alone; for Effect on bacterial count (in words): summary of Table 3, alone or in combination
Method: as §1

## O=C(NNC(=O)[C@@H]1CC[C@@H]2CN1C(=O)N2OS(=O)(=O)O)[C@@H]1CCCNC1 [Compound (C)]
[1]; 2 mcg/ml alone
  Bacterial count (Log10 CFU/ml) 0 hours: 7.28 Log10 CFU/ml
  Change in Log10 CFU/ml over 0 hour count after 24 hours: 1.26 Log10 CFU/ml
  Bacterial count (Log10 CFU/ml) 2 hours: 7.60 Log10 CFU/ml
  Bacterial count (Log10 CFU/ml) 4 hours: 8.26 Log10 CFU/ml
  Bacterial count (Log10 CFU/ml) 6 hours: 8.18 Log10 CFU/ml
  Bacterial count (Log10 CFU/ml) 24 hours: 8.54 Log10 CFU/ml
[1]
  Effect on bacterial count (in words): could not reduce the bacterial count
[2]; Table 2, 2 mcg/ml alone
  Change in Log10 CFU/ml over 0 hour count after 24 hours: −3.54 Log10 CFU/ml
  Bacterial count (Log10 CFU/ml) 2 hours: 6.30 Log10 CFU/ml
  Bacterial count (Log10 CFU/ml) 4 hours: 4.93 Log10 CFU/ml
  Bacterial count (Log10 CFU/ml) 6 hours: 4.23 Log10 CFU/ml
  Bacterial count (Log10 CFU/ml) 24 hours: 3.54 Log10 CFU/ml
[2]; summary of Table 2
  Effect on bacterial count (in words): could not reduce the bacterial count
[3]
  Bacterial count (Log10 CFU/ml) 0 hours: 6.88 Log10 CFU/ml
  Change in Log10 CFU/ml over 0 hour count after 24 hours: 2.35 Log10 CFU/ml
  Bacterial count (Log10 CFU/ml) 2 hours: 8.13 Log10 CFU/ml
  Bacterial count (Log10 CFU/ml) 4 hours: 8.85 Log10 CFU/ml
  Bacterial count (Log10 CFU/ml) 6 hours: 9.19 Log10 CFU/ml
  Bacterial count (Log10 CFU/ml) 8 hours: 9.02 Log10 CFU/ml
  Bacterial count (Log10 CFU/ml) 24 hours: 9.23 Log10 CFU/ml
  Effect on bacterial count (in words): could not reduce the bacterial count

## O=C(NOC[C@@H]1CCCN1)[C@@H]1CC[C@@H]2CN1C(=O)N2OS(=O)(=O)O [Compound (D)]
[1]; 2 mcg/ml alone
  Bacterial count (Log10 CFU/ml) 0 hours: 7.28 Log10 CFU/ml
  Change in Log10 CFU/ml over 0 hour count after 24 hours: 1.26 Log10 CFU/ml
  Bacterial count (Log10 CFU/ml) 2 hours: 7.60 Log10 CFU/ml
  Bacterial count (Log10 CFU/ml) 4 hours: 8.26 Log10 CFU/ml
  Bacterial count (Log10 CFU/ml) 6 hours: 8.18 Log10 CFU/ml
  Bacterial count (Log10 CFU/ml) 24 hours: 8.54 Log10 CFU/ml
[1]
  Effect on bacterial count (in words): could not reduce the bacterial count
[2]; Table 2, 2 mcg/ml alone
  Change in Log10 CFU/ml over 0 hour count after 24 hours: 0.22 Log10 CFU/ml
  Bacterial count (Log10 CFU/ml) 2 hours: 7.65 Log10 CFU/ml
  Bacterial count (Log10 CFU/ml) 4 hours: 7.30 Log10 CFU/ml
  Bacterial count (Log10 CFU/ml) 6 hours: 7.78 Log10 CFU/ml
  Bacterial count (Log10 CFU/ml) 24 hours: 7.30 Log10 CFU/ml
[2]; summary of Table 2
  Effect on bacterial count (in words): could not reduce the bacterial count
[3]
  Bacterial count (Log10 CFU/ml) 0 hours: 6.88 Log10 CFU/ml
  Change in Log10 CFU/ml over 0 hour count after 24 hours: 2.07 Log10 CFU/ml
  Bacterial count (Log10 CFU/ml) 2 hours: 7.98 Log10 CFU/ml
  Bacterial count (Log10 CFU/ml) 4 hours: 8.60 Log10 CFU/ml
  Bacterial count (Log10 CFU/ml) 6 hours: 9.00 Log10 CFU/ml
  Bacterial count (Log10 CFU/ml) 8 hours: 9.04 Log10 CFU/ml
  Bacterial count (Log10 CFU/ml) 24 hours: 8.95 Log10 CFU/ml
  Effect on bacterial count (in words): could not reduce the bacterial count

## NCCONC(=O)[C@@H]1CC[C@@H]2CN1C(=O)N2OS(=O)(=O)O [Compound (E)]
[1]; 2 mcg/ml alone
  Bacterial count (Log10 CFU/ml) 0 hours: 7.28 Log10 CFU/ml
  Change in Log10 CFU/ml over 0 hour count after 24 hours: 1.26 Log10 CFU/ml
  Bacterial count (Log10 CFU/ml) 2 hours: 7.60 Log10 CFU/ml
  Bacterial count (Log10 CFU/ml) 4 hours: 8.26 Log10 CFU/ml
  Bacterial count (Log10 CFU/ml) 6 hours: 8.18 Log10 CFU/ml
  Bacterial count (Log10 CFU/ml) 24 hours: 8.54 Log10 CFU/ml
[1]
  Effect on bacterial count (in words): could not reduce the bacterial count
[2]; Table 2, 2 mcg/ml alone
  Change in Log10 CFU/ml over 0 hour count after 24 hours: 2.22 Log10 CFU/ml
  Bacterial count (Log10 CFU/ml) 2 hours: 8.02 Log10 CFU/ml
  Bacterial count (Log10 CFU/ml) 4 hours: 9.15 Log10 CFU/ml
  Bacterial count (Log10 CFU/ml) 6 hours: 9.11 Log10 CFU/ml
  Bacterial count (Log10 CFU/ml) 24 hours: 9.30 Log10 CFU/ml
[2]; summary of Table 2
  Effect on bacterial count (in words): could not reduce the bacterial count
[3]
  Bacterial count (Log10 CFU/ml) 0 hours: 6.88 Log10 CFU/ml
  Change in Log10 CFU/ml over 0 hour count after 24 hours: 2.16 Log10 CFU/ml
  Bacterial count (Log10 CFU/ml) 2 hours: 8.04 Log10 CFU/ml
  Bacterial count (Log10 CFU/ml) 4 hours: 8.74 Log10 CFU/ml
  Bacterial count (Log10 CFU/ml) 6 hours: 8.90 Log10 CFU/ml
  Bacterial count (Log10 CFU/ml) 8 hours: 9.20 Log10 CFU/ml
  Bacterial count (Log10 CFU/ml) 24 hours: 9.04 Log10 CFU/ml
  Effect on bacterial count (in words): could not reduce the bacterial count

## CC(C)(O/N=C(\C(=O)N[C@@H]1C(=O)N2C(C(=O)[O-])=C(C[N+]3(CCNC(=O)c4ccc(O)c(O)c4Cl)CCCC3)CS[C@H]12)c1csc(N)n1)C(=O)O [Compound of Formula (I), (6R,7R)-7-[(2Z)-2-(2-amino-1,3-thiazol-4-yl)-2-{[(2-carboxypropan-2-yl)oxy]imino}acetamido]-3-({1-[2-(2-chloro-3,4-dihydroxybenzamido)ethyl]pyrrolidin-1-ium-1-yl}methyl)-8-oxo-5-thia-1-azabicyclo[4.2.0]oct-2-ene-2-carboxylate]
[1]; 0.25 mcg/ml alone
  Bacterial count (Log10 CFU/ml) 0 hours: 7.28 Log10 CFU/ml
  Change in Log10 CFU/ml over 0 hour count after 24 hours: −0.47 Log10 CFU/ml
  Bacterial count (Log10 CFU/ml) 2 hours: 6.74 Log10 CFU/ml
  Bacterial count (Log10 CFU/ml) 6 hours: 6.70 Log10 CFU/ml
  Bacterial count (Log10 CFU/ml) 24 hours: 6.81 Log10 CFU/ml
[1]; 0.5 mcg/ml alone
  Bacterial count (Log10 CFU/ml) 0 hours: 7.28 Log10 CFU/ml
  Change in Log10 CFU/ml over 0 hour count after 24 hours: −0.98 Log10 CFU/ml
  Bacterial count (Log10 CFU/ml) 2 hours: 6.18 Log10 CFU/ml
  Bacterial count (Log10 CFU/ml) 4 hours: 5.85 Log10 CFU/ml
  Bacterial count (Log10 CFU/ml) 6 hours: 6.30 Log10 CFU/ml
  Bacterial count (Log10 CFU/ml) 24 hours: 6.30 Log10 CFU/ml
[1]
  Effect on bacterial count (in words): could not reduce the bacterial count
[2]; Table 2, 0.25 mcg/ml alone
  Change in Log10 CFU/ml over 0 hour count after 24 hours: 2.12 Log10 CFU/ml
  Bacterial count (Log10 CFU/ml) 2 hours: 7.60 Log10 CFU/ml
  Bacterial count (Log10 CFU/ml) 4 hours: 9.11 Log10 CFU/ml
  Bacterial count (Log10 CFU/ml) 6 hours: 9.20 Log10 CFU/ml
  Bacterial count (Log10 CFU/ml) 24 hours: 9.20 Log10 CFU/ml
[2]; Table 2, 0.5 mcg/ml alone
  Change in Log10 CFU/ml over 0 hour count after 24 hours: 2.12 Log10 CFU/ml
  Bacterial count (Log10 CFU/ml) 2 hours: 7.18 Log10 CFU/ml
  Bacterial count (Log10 CFU/ml) 4 hours: 7.74 Log10 CFU/ml
  Bacterial count (Log10 CFU/ml) 6 hours: 9.18 Log10 CFU/ml
  Bacterial count (Log10 CFU/ml) 24 hours: 9.20 Log10 CFU/ml
[2]; Table 5, 1 mcg/ml alone
  Change in Log10 CFU/ml over 0 hour count after 8 hours: 1.57 Log10 CFU/ml
  Bacterial count (Log10 CFU/ml) 2 hours: 7.15 Log10 CFU/ml
  Bacterial count (Log10 CFU/ml) 4 hours: 6.60 Log10 CFU/ml
  Bacterial count (Log10 CFU/ml) 6 hours: 7.90 Log10 CFU/ml
[2]; Table 5, 8 hours, 1 mcg/ml alone
  Bacterial count (Log10 CFU/ml) 8 hours: 8.65 Log10 CFU/ml
[2]; summary of Table 2
  Effect on bacterial count (in words): could not reduce the bacterial count
[2]; summary of Table 5, throughout the duration of the study
  Effect on bacterial count (in words): did not reduce the bacterial count
[3]
  Bacterial count (Log10 CFU/ml) 0 hours: 6.88 Log10 CFU/ml
  Change in Log10 CFU/ml over 0 hour count after 24 hours: 2.22 Log10 CFU/ml
  Bacterial count (Log10 CFU/ml) 2 hours: 4.85 Log10 CFU/ml
  Bacterial count (Log10 CFU/ml) 4 hours: 4.02 Log10 CFU/ml
  Bacterial count (Log10 CFU/ml) 6 hours: 5.18 Log10 CFU/ml
  Bacterial count (Log10 CFU/ml) 8 hours: 7.5 Log10 CFU/ml
  Bacterial count (Log10 CFU/ml) 24 hours: 9.10 Log10 CFU/ml
  Effect on bacterial count (in words): could not reduce the bacterial count

— patent publication US20200316083A1, “ANTIBACTERIAL COMPOSITIONS” (WOCKHARDT LIMITED, priority 2016, published 2020)
